Experimental findings from patent publication US11040954B1, “CXCR3 receptor agonists” (RECEPTOS LLC, priority 2016, dated 2021) are described below.

Where two headings read alike, the source gives them in different places.

Data set [1] can be described thus: Mouse pharmacokinetics after oral gavage, plasma drug concentration by LC-MS/MS (C57BL/6). It is filed as in vivo, C57bl/6 mice. The conditions noted are these: for Cmax / AUC(0-t): mouse, plasma; for AUC(0-t): read-out: AUC0-24. The procedure: Compounds were formulated in 5% DMSO/5% Tween20 in H2O, sonicated, vortexed, and put on stir plate overnight at a dose volume of 10 mL/kg. Balb/C (Jackson laboratories) or C57bl/6 (Taconic Biosciences) mice (8-9 weeks old) were acclimated to the colony for 3 days prior to dosing. Water and food were provided ab libitum. Compounds were administered by oral gavage. Groups of six animals received 3 to 4 bleeds per day with one terminal bleed. The time points were 30 min, 1 h, 2 h, 4 h, 6 h, 8 h, 24 h. Plasma was collected via centrifugation and analyzed for drug concentrations.
Preparation of Study Samples and Standards for Analysis by LC-MS/MS
50 μl of plasma was aliquoted into a 96 well deep-well polypropylene plate (2 mL) to which 5 μL of DMSO was added. For standards, 5 μl of test compound in DMSO at […] the standard concentration was added to 50 μl of blank matrix in a 96 well deep-well polypropylene plate. For example, for a 300 nM standard, the 10× DMSO concentration was 3 μM. Study samples that require dilution are diluted with the appropriate blank matrix. For example, for a 10× dilution, 5 μL of study sample is added to 45 μl of blank matrix. Protein was precipitated from study samples and standards with the addition of 150 μl of acetonitrile. After a clean plate map was placed firmly over the top of the 96-well plate, a bench top shaker was used for 1 min to ensure complete precipitation of protein. The precipitated protein was pelleted by centrifuging for 3,000 rpm for 10 min at 20° C. and then the clear supernatant was transferred to a clean 96-well plate and spun again under the same conditions in order to pellet any solid material that may have been transferred.
Analysis of Study Samples and Standards with LCMS with MRM Detection
An Agilent 1200 HPLC with binary pump and a Leap CTC with fast wash autosampler were used to introduce samples to the mass spectrometer.
The column used was a Phenomenex Luna C8 30×2 mm 5 μm with a security guard. Mass detection was performed by an Applied Biosystems 4000 Qtrap in MRM mode and ionization was achieved by positive electrospray with a source temperature of 500° C. The ion transitions, […] potential and collision energies were dependent on the specific analyte.
Prepared samples were usually analyzed in reverse chronological order with bracketing standard curves. Typically at least 6 standards were used for quantification with a percent accuracy of +/−15% for all standards except at the LLOQ where a percent accuracy of +/−20% was allowed. The concentration time profile was fit using a one compartment model for the applicable mode of dosing using Phoenix WinNonLin 6.4.

The target of data set [2] is T1, CXCR3 (Homo sapiens, UniProt P49682).
T1 construct: host or cells: CHO-K1 (cAMP Hunter CHOK1 CXCR3 Gi cell line)
T1 sequence (P49682 1-368): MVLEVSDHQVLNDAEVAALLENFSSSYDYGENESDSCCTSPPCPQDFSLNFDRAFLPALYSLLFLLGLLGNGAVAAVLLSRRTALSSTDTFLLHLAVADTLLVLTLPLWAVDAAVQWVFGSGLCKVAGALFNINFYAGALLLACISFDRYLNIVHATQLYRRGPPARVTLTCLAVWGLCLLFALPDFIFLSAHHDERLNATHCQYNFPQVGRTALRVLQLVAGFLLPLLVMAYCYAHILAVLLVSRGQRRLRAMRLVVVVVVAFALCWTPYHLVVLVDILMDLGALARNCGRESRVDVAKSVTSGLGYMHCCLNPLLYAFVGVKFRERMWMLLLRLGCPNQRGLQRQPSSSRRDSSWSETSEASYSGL
Description: CXCR3 cAMP agonist assay (cAMP Hunter CHOK1 CXCR3 Gi cell line, forskolin-stimulated, HitHunter cAMP detection). It is filed as cell-based. The conditions noted are these: cAMP Hunter CHOK1 CXCR3 Gi cells, 20 μM forskolin, 30 minutes; read-out: Activity (CXCR3 cAMP agonist assay compound EC50). An outline of the steps: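 Agonist activity was measured as suppression of forskolin (20 μM)-induced cAMP, read by luminescent enzyme-fragment complementation with a cAMP standard curve and CXCL11 defining full efficacy. Assay used 50,000 CXCR3 Gi CHOK1 cells/well in pH 7.4 HEPES-buffered HBSS with 0.1% BSA, compound 0-10 μM over 12 points, 30 min incubation.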

Turning to `Cc1c(NC(=O)[C@H](CCN)NC(=O)[C@@H]2Cc3ccccc3CN2C(=O)CCC(=O)c2ccccc2)ccc(Cl)c1Cl` [Compound 2-15], in data set [1] (C57BL/6, 10 mg/kg, male mice), the “apparent oral clearance (CL/F)” value is 37 mL/min/kg, the peak level (Cmax) was 0.97 µM and the AUC(0-t) is 7.5 µM·h. The EC50 in data set [2] is under 50 nM.
Turning to `Cc1cc(NC(=O)[C@H](CC23CC(N)(C2)C3)NC(=O)[C@@H]2Cc3ccccc3CN2C(=O)CCC(=O)c2ccccc2)ccc1Cl` [Compound 22-1, (S)—N—((S)-3-(3-aminobicyclo[1.1.1]pentan-1-yl)-1-((4-chloro-3-methylphenyl)amino)-1-oxopropan-2-yl)-2-(4-oxo-4-phenylbutanoyl)-1,2,3,4-tetrahydroisoquinoline-3-carboxamide], in data set [1] (C57BL/6, 60 mg/kg, female mice), the “apparent oral clearance (CL/F)” value was determined as 34 mL/min/kg, the highest level (Cmax) was 7.3 µM and the AUC(0-t) was 48 µM·h. In data set [2], the EC50 was under 50 nM.
Consider `Cc1cc(NC(=O)[C@H](CCN)NC(=O)[C@@H]2Cc3ccccc3CN2C(=O)CCC(=O)N2CCCCC2(C)C)c(C#N)cc1Cl` [Compound 18-1, (S)—N—((S)-4-amino-1-((4-chloro-2-cyano-5-methylphenyl)amino)-1-oxobutan-2-yl)-2-(4-(2,2-dimethylpiperidin-1-yl)-4-oxobutanoyl)-1,2,3,4-tetrahydroisoquinoline-3-carboxamide], for which, in data set [1] (C57BL/6, 60 mg/kg, female mice), the “apparent oral clearance (CL/F)” value is recorded as 565 mL/min/kg, the Cmax is 1.2 µM and the AUC(0-t) was 2.9 µM·h. In addition, in data set [2], the EC50 is under 50 nM.
The matching figures for `Cc1cc(NC(=O)[C@H](CCN)NC(=O)[C@@H]2Cc3ccccc3CN2C(=O)CCC(=O)N2CCCC(C)(C)C2)cc(C)c1Cl` [Compound 10-9]: 132 mL/min/kg, 4.3 µM, 12.4 µM·h and under 50 nM.
The like results for `CC1(C)CCCCN1C(=O)CCC(=O)N1Cc2cc(F)ccc2C[C@H]1C(=O)N[C@@H](CCN)C(=O)Nc1ccc(Cl)c(Cl)c1F` [Compound 15-62] were, in that order, 1100 mL/min/kg, 0.6 µM, 1.4 µM·h and under 50 nM.
With `CC1(C)CCCN(C(=O)CCC(=O)N2Cc3ccccc3C[C@H]2C(=O)N[C@@H](CCN)C(=O)Nc2ccc(Cl)c(Cl)c2F)C1` [Compound 15-6], in data set [1] (C57BL/6, 60 mg/kg, female mice), the “apparent oral clearance (CL/F)” value was found to be 90 mL/min/kg, the highest level (Cmax) was 5.7 µM and the AUC(0-t) was 17.6 µM·h. Moreover, in data set [2], the EC50 is under 50 nM.
For the molecule `CN1CCN(C(=O)CCC(=O)N2Cc3ccccc3C[C@H]2C(=O)NC2(C(=O)Nc3ccc(Cl)c(Cl)c3F)CCNCC2)CC1` [Compound 12-138], in data set [1] (C57BL/6, 60 mg/kg, female mice), the “apparent oral clearance (CL/F)” value is reported as 851 mL/min/kg, the Cmax is 0.5 µM and the AUC(0-t) worked out at 1.8 µM·h. Besides, in data set [2], the EC50 is under 50 nM.
As for `Cc1ccc(C(F)(F)F)c(NC(=O)[C@H](CCN)NC(=O)[C@@H]2Cc3ccccc3CN2C(=O)CCC(=O)c2ccccc2)c1` [Compound 14-17], in data set [1] (C57BL/6, 60 mg/kg, female mice), the “apparent oral clearance (CL/F)” value came to 22 mL/min/kg, the highest level (Cmax) was 22 µM and the AUC(0-t) is 78 µM·h. The EC50 in data set [2] was under 50 nM.
For `Cc1cc(NC(=O)[C@H](CCN)NC(=O)[C@@H]2Cc3ccccc3CN2C(=O)CCC(=O)c2ccccc2)c(OC(F)(F)F)cc1C` [Compound 14-28], in data set [1] (C57BL/6, 60 mg/kg, female mice), the “apparent oral clearance (CL/F)” value amounted to 47 mL/min/kg, the Cmax worked out at 5.2 µM and the AUC(0-t) stood at 33.8 µM·h. The EC50 in data set [2] is under 50 nM.
For `CCc1cc(NC(=O)[C@H](CCN)NC(=O)[C@@H]2Cc3ccccc3CN2C(=O)CCC(=O)c2ccccc2)ccc1Cl` [Compound 2-55], in data set [1] (C57BL/6, 60 mg/kg, female mice), the “apparent oral clearance (CL/F)” value is reported as 176 mL/min/kg, the Cmax worked out at 3 µM and the AUC(0-t) came out at 9.9 µM·h. Also, in data set [2], the EC50 was under 50 nM.
The matching figures for `Cc1c(Cl)ccc(NC(=O)[C@H](CCN)NC(=O)[C@@H]2Cc3ccccc3CN2C(=O)CCC(=O)N2CCCC23CCC3)c1Cl` [Compound 15-48]: 98 mL/min/kg, 6.7 µM, 16.3 µM·h and under 50 nM.
On to `Cc1cc(NC(=O)C2(NC(=O)[C@@H]3Cc4ccccc4CN3C(=O)CCC(=O)c3ccccc3)CCNCC2)ccc1Cl` [Compound 4-12], for which, in data set [1] (C57BL/6, 10 mg/kg, male mice), the “apparent oral clearance (CL/F)” value is recorded as 32 mL/min/kg, the highest concentration (Cmax) was determined as 3.3 µM and the AUC(0-t) amounted to 9 µM·h. The EC50 in data set [2] was 50 to 250 nM.
As to `Cc1cc(NC(=O)[C@H](CCN)NC(=O)[C@@H]2Cc3ccccc3CN2C(=O)CCC(=O)c2ccccc2)c(C#N)cc1Cl` [Compound 14-18], in data set [1] (C57BL/6, 60 mg/kg, female mice), the “apparent oral clearance (CL/F)” value turned out to be 222 mL/min/kg, the maximum concentration (Cmax) came to 3.2 µM and the AUC(0-t) amounted to 7.7 µM·h. Moreover, the EC50 in data set [2] was under 50 nM.
Turning to `NCC[C@H](NC(=O)[C@@H]1Cc2ccc(F)cc2CN1C(=O)CCC(=O)c1ccccc1)C(=O)Nc1ccc(Cl)c(Cl)c1F` [Compound 27-7], in data set [1] (C57BL/6, 60 mg/kg, female mice), the “apparent oral clearance (CL/F)” value is given as 92 mL/min/kg, the Cmax came to 4.3 µM and the AUC(0-t) came to 17.6 µM·h. Further, the concentration for a half-maximal effect (EC50) in data set [2] was under 50 nM.
The matching figures for `Cc1c(Cl)cc(NC(=O)[C@H](CCN)NC(=O)[C@@H]2Cc3ccccc3CN2C(=O)CCC(=O)c2ccccc2)cc1Cl` [Compound 27-3]: 143 mL/min/kg, 5.1 µM, 11.7 µM·h and under 50 nM.
As to `Cc1cc(NC(=O)C2(NC(=O)[C@@H]3Cc4ccccc4CN3C(=O)CCC(=O)c3ccccc3)CCN(C)CC2)ccc1Cl` [Compound 6-4], in data set [1] (C57BL/6, 10 mg/kg, male mice), the “apparent oral clearance (CL/F)” value is 33 mL/min/kg, the concentration peaked (Cmax) at 0.81 µM and the AUC(0-t) was 8.3 µM·h. In addition, the EC50 in data set [2] was in the range of 50 to 250 nM.
As to `Cc1cc(NC(=O)[C@H](CCN)NC(=O)[C@@H]2Cc3ccccc3CN2C(=O)CCC(=O)N2CCN(C)C[C@H]2C)ccc1Cl` [Compound 12-100], in data set [1] (C57BL/6, 60 mg/kg, female mice), the AUC0-24 entry is recorded as “BQL” and the highest level (Cmax) was 0.37 µM. Also, in data set [2], the EC50 was under 50 nM.
Consider `Cc1cc(NC(=O)[C@@H](NC(=O)[C@@H]2Cc3ccccc3CN2C(=O)CCC(=O)c2ccccc2)C2CCN(C(C)C)CC2)ccc1Cl` [Compound 8-2], for which, in data set [1] (C57BL/6, 10 mg/kg, male mice), the “apparent oral clearance (CL/F)” value was determined as 112 mL/min/kg, the concentration peaked (Cmax) at 0.71 µM and the AUC(0-t) worked out at 2.3 µM·h. Besides, the EC50 in data set [2] was under 50 nM.
On to `NCC[C@H](NC(=O)[C@@H]1Cc2ccccc2CN1C(=O)CCC(=O)c1ccccc1)C(=O)Nc1ccc2c(c1)CCC2` [Compound 2-47], for which, in data set [1] (C57BL/6, 60 mg/kg, female mice), the “apparent oral clearance (CL/F)” value came out at 66 mL/min/kg, the Cmax was 7.6 µM and the AUC(0-t) was determined as 27.5 µM·h. For the same molecule, the EC50 in data set [2] is under 50 nM.
The matching figures for `Cc1cc(NC(=O)[C@H](CCN)NC(=O)[C@@H]2Cc3ccccc3CN2C(=O)CCC(=O)N2CCCC(C)(C)C2)ccc1Cl` [Compound 12-88]: 280 mL/min/kg, 3.1 µM, 6 µM·h and under 50 nM.
With `Cc1cc(NC(=O)[C@H](CCCCN)NC(=O)[C@@H]2Cc3ccccc3CN2C(=O)CCC(=O)c2cccc(Cl)c2)ccc1Cl` [Compound 7-2], the EC50 in data set [2] was 50 to 250 nM.
For the molecule `Cc1cc(NC(=O)[C@H](CCN)NC(=O)[C@@H]2Cc3ccccc3CN2C(=O)CCC(=O)N2C3CCC2CN(C)C3)ccc1Cl` [Compound 12-105], in data set [2], the EC50 is over 500 nM.

The Cmax is the maximum level reached in the sampled fluid or tissue. Usually EC50 stands for the midpoint of the concentration-response curve.
